Publication PMC3148216, “A Prokaryotic S1P Lyase Degrades Extracellular S1P In Vitro and In Vivo: Implication for Treating Hyperproliferative Disorders” (PLoS ONE, 2011)

Target: T1, StSPL (S1P lyase from Symbiobacterium thermophilum) (Symbiobacterium thermophilum, UniProt Q67PY4)
T1 construct: gene STH1274; full-length STH1274, C-terminal His-tag, expressed in E. coli, 507 residues, 55 kDa monomer, homodimer (110 kDa); PLP-dependent, residues of both subunits form the active site
Test: visible spectrum of enzyme-bound cofactor, change on substrate addition
Format: binding
Details: Schiff base with K311, covalent; S1P added; purified in PBS with 10 µM PLP

T1 sequence (Q67PY4 entry or part of it): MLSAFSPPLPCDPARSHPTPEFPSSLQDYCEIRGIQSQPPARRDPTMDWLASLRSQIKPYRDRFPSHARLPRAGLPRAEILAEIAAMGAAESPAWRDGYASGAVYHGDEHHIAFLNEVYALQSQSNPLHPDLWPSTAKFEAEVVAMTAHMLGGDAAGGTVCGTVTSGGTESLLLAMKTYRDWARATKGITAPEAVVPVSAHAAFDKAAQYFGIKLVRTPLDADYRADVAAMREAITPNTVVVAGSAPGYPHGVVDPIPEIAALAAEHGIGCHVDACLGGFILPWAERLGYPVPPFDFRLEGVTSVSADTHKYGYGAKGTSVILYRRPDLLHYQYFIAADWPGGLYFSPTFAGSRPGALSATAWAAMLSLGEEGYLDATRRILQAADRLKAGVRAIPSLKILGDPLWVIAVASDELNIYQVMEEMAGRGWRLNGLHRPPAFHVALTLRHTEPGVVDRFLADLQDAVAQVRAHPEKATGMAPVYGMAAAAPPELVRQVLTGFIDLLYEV

## Cc1ncc(COP(=O)(O)O)c(C=O)c1O [PLP, pyridoxal-5′-phosphate]
  visible spectrum of enzyme-bound cofactor, change on substrate addition: recording spectrophotometric changes of the cofactor upon catalysis
